Test results reported in patent US20210393645A1, “TREATMENT FOR PROGRESSIVE MULTIPLE SCLEROSIS” (UTI LIMITED PARTNERSHIP, priority 2016, published 2021).
Structures can show the parent of a compound that is named as a salt.

Key:
human neurons = test: Iron (FeSO4) mediated neurotoxicity screening, MAP-2 positive neurons counted; format: cell-based
Method in brief: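 Fetal human neurons (15-20 wk), plated with cytosine arabinoside, were pre-incubated 1 h with compounds (10 mM DMSO stocks) before FeSO4 at 25-50 μM final. Cells fixed a day later; MAP-2 immunostaining plus Hoechst nuclei imaged automatically, sites per well averaged; quadruplicates.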

[1] = Hydroxyl radical antioxidant capacity (HORAC) assay; format: biochemical; conditions: vs 12.5 μM gallic acid (=1), 60 min
Experimental: In this assay, hydroxyl radicals generated by a Co(II)-mediated Fenton-like reaction oxidize fluorescein causing loss of fluorescence (Ou et al., J Argricultural Food Chemistry 50:2772-2777, 2002). The presence of an anti-oxidant reduces the loss of fluorescence and this can be monitored every 5 min over a period of 60 min with a Spectra Max Gemini XS plate reader (Molecular Devices, Sunnyvale, Calif., USA) and the software SoftMax Pro version 5. For monitoring fluorescence, we used an excitation wavelength of λ=485 nm and an emission wavelength of λ=520 nm.
The biochemical cell free hydroxyl radical antioxidant capacity (HORAC) assay investigates the prevention of hydroxyl radical mediated oxidation of to fluorescein in comparison to the strong anti-oxidant gallic acid. The generation of hydroxyl radicals by a cobalt-driven Fenton-like reaction oxidizes fluorescein with progressive loss of fluorescence. The presence of an anti-oxidant reduces the loss of fluorescence over time.
We compared the area under the curve of test compounds to that elicited by gallic acid to obtain the gallic acid equivalent (GAE).

T-cells = test: Proliferation of T-lymphocytes (3H-thymidine) in anti-CD3/anti-CD28 activated splenocytes; format: cell-based, mouse; conditions: Mus musculus, T-cell, 72 h; drug 10 μM, vs activated splenocytes; read-out: mean reduction of 3H-thymidine incorporation (T-cell proliferation)
Experimental: A previously published protocol was used for isolating and activating T-cells (Keough et al., Nature Comm 7:11312, 2016). Spleens from female C57B16 mice were harvested and after mechanical dissociation the cell suspension was passed through a 70 μm cell strainer and separated by Ficoll gradient (1800 RPM, 30 min). Splenocytes were plated (2.5×10^5 cells in 100 μl/well) in anti-CD3 antibody coated 96-well plates (1,000 ng m1^−1 plate-bound anti-CD3 and 1,000 ng m1^−1 anti-CD28 suspended in media) to activate T-cells. Directly before plating, wells were treated with respective drugs in a final concentration of 10 μM. Cells were cultured in RPMI 1640 medium, supplemented with 10% FBS, 1 μM sodium pyruvate, 2 mM L-alanyl-L-glutamine, 1% penicillin/streptomycin, 1% HEPES and 0.05 mM 2-mercaptoethanol (all supplements were from Invitrogen). After 48 h, ^3H-thymidine was added in a concentration of 1 μCi per well, and cells were harvested after 24 h on filter mats. Mats were then evaluated for radioactivity (counts per minute) using a liquid scintillation counter.

Biozzi ABH mice = test: Chronic EAE in Biozzi ABH mice (spinal cord homogenate); format: in vivo, mouse; conditions: treatment from onset of clinical signs

CN(C)CCCN1c2ccccc2CCc2ccc(Cl)cc21 [CLOMIPRAMINE HYDROCHLORIDE]
viability at 10 µM (human neurons; Homo sapiens, Neuron, drug 10 μM 1 h before FeSO4 25 or 50 μM, MAP-2 neurons after 24 h, read-out: Drug % control (mean): number of neurons normalized to untreated control): 107% | concentration from which neuroprotection against iron toxicity is significant (human neurons; concentration response): 100 nM | Drug % control (mean): number of neurons normalized to untreated control (human neurons; drug 10 μM 1 h before FeSO4 25 or 50 μM, MAP-2 neurons after 24 h, HYDROCHLORIDE): 107.30% | protection from FeSO4-mediated neurotoxicity (in words) (human neurons; drug 10 μM, human neurons): strong protection | mean HORAC-GAE (gallic acid equivalents) [1]: 2.1 | inhibition at 10 µM (T-cells): 68.2% | clinical severity in chronic EAE (Biozzi ABH mice): reduced clinical severity
